The text below walks through data of article PMC4094919, “Screening and hit evaluation of a chemical library against blood-stage Plasmodium falciparum” (Malaria Journal, 2014).

The test system of one data set is P. falciparum 3D7 strain. As to the kind of experiment: P. falciparum 3D7 growth inhibition, DAPI imaging (HTS screen). It is filed as cell-based. The note with it: Plasmodium falciparum. As for the experimental part:
The P. falciparum 3D7 strain was used for the primary screen.
For the screening of the chemical library, a validated high throughput screening (HTS) method was used as reported by Duffy and Avery. In brief, intra-erythrocyte P. falciparum 3D7 parasites incubated with the compounds for 72 hours were stained with 4′-6-diamidino-2-phenylindole (DAPI) and imaged using a high throughput confocal imaging system. To ascertain inhibition of parasite growth, images of fluorescent parasites were translated, using a mathematical algorithm, into a numerical output of classified spots (parasites) as determined by fluorescence size and intensity.
EC50 and CC50 values were calculated for compounds which presented an Emax plateau using GraphPad Prism.

Data set [1] in a line: Chemical stability on standing at room temperature. It is filed as physicochemical.
For data set [2], the system named is P. falciparum NF54 strain. As to the kind of experiment: P. falciparum NF54 growth assay, 3H-hypoxanthine incorporation (hit validation). It is filed as cell-based, Plasmodium falciparum. The settings on record: for EC50: Plasmodium falciparum; for Comment (activity in words on retest): hit validation, NF54 confirmatory assay. As for the experimental part: Synthesized compounds were tested in an alternative assay, in which ^3H-hypoxanthine incorporation was measured in the chloroquine-sensitive strain NF54 (Values were measured in duplicate, 12 points/EC50).
Cultivation of Plasmodium falciparum: Plasmodium falciparum strain NF54 was obtained from the Research and Reference Reagent Resource Center (MR4) (Manassas, VA, USA). The two strains were maintained in vitro by a modification of the method of Trager and Jensen. Cultures were maintained in A positive (A^+) human erythrocytes suspended at 5% hematocrit in complete medium. […] Parasite growth and morphology were observed daily using thin smears at 100X (oil immersion) magnification following staining with Giemsa stain.
Plasmodium falciparum growth assay: The protocol assesses the compound efficacy against the growth of P. falciparum in vitro.
All cultures used in the study are albumax II adopted. […]
Following the incubation period, the plates were harvested with a FilterMate cell harvester (Perkin Elmer) onto unifilter-96 GF/B plates, washed with distilled water to remove excess radiochemical and plates were kept for drying 37°C overnight or 60°C for 1 hr. Fifty µL of Microscint scintillation cocktail (Microscint-High Efficiency LSC-Cocktail; Perkin Elmer) added in the unifilter-96 GF/B plates and kept for 15-20 min. The plates were counted in a Top Count NXT microplate scintillation and luminescence counter (Perkin Elmer). The mean values for [^3H]-hypoxanthine incorporation in parasitized control and non-parasitized control erythrocytes were calculated.
Assay data were analysed using Graph pad prism ver.5 software. A variable sigmoid dose response curve is plotted keeping log concentrations at X-axis and % inhibition at Y-axis.

The mark [3] stands for this setting: P. falciparum 3D7 strain, DAPI imaging, HTS screen, library sample, read-out: EC50 (3D7).
Where [4] appears, read: negative logarithm of the molar EC50, 3D7, read-out: pEC50 (3D7) (converted).
The mark [5] stands for this setting: NF54, heading bounds of Figure 8: not reconfirming / reconfirming / newly synthesized compounds, read-out: EC50 (bound in Figure 8).
Where [6] appears, read: P. falciparum NF54 strain, 3H-hypoxanthine incorporation, newly synthesized sample, read-out: EC50 (NF54).
Where [7] appears, read: negative logarithm of the molar EC50, NF54, read-out: pEC50 (NF54) (converted).
Where [8] appears, read: 3D7 / NF54, range over HTS (3D7) and retest after synthesis (NF54), read-out: EC50 range over the two assays.

“Also recorded” adds a separate entry of the source. Like-named read-outs stand apart in the source and are kept apart here. Marks after values point to notes of the source that are not given here.

For the compound `Cc1c(CO)c2ccccc2n1Cc1ccccc1C#N` [Compound 1, 2-((3-(hydroxymethyl)-2-methyl-1H-indol-1-yl)methyl)benzonitrile], the EC50 was 602 nM in the data set on P. falciparum 3D7 strain (setting [3]); 631 nM in the data set on P. falciparum 3D7 strain (setting [4]); above 1000 nM in data set [2] (setting [5]); 4700 nM in data set [2] (setting [6]); 5010 nM in data set [2] (setting [7]). Moreover, the Chemical stability entry in data set [1] is “significantly degraded; also recorded: unstable”. In addition, in data set [2], the “Comment (activity in words on retest)” value is listed as “Weakly active/unstable”.

On to `O=C(c1cccc(-c2noc(CN(CCN3CCCCC3)C(=O)c3ccccc3)n2)c1)N1CCCNCC1` [Compound 10, N-((3-(3-(1,4-diazepane-1-carbonyl)phenyl)-1,2,4-oxadiazol-5-yl)methyl)-N-(2-(piperidin-1-yl)ethyl)benzamide], for which the EC50 in the data set on P. falciparum 3D7 strain (setting [3]) was 181 nM; in the data set with P. falciparum 3D7 strain (setting [4]) it was 200 nM; in data set [2] (setting [8]), 60 to 181 nM; in data set [2] (setting [5]) it was below 1000 nM; in data set [2] (setting [6]), 60 nM; in data set [2] (setting [7]) it was 63.1 nM. Further, the “Comment (activity in words on retest)” value in data set [2] is “Validated hit”.

In the case of `O=C(NCC(c1ccsc1)N1CCCCCC1)c1ccc(C(F)(F)F)cc1` (stereo not drawn) [Compound 11, N-(2-(azepan-1-yl)-2-(thiophen-3-yl)ethyl)-4-(trifluoromethyl)benzamide], the EC50 with P. falciparum 3D7 strain (setting [3]) is 433 nM; with P. falciparum 3D7 strain (setting [4]), 398 nM; in data set [2] (setting [5]), below 1000 nM; in data set [2] (setting [6]) it was 518 nM; in data set [2] (setting [7]), 501 nM. Moreover, the “Comment (activity in words on retest)” value in data set [2] is on record as “Validated hit”.

For `COc1ccc2c(c1)C1(Nc3ccccc3-c3nc4ccccc4n31)C(=O)N2` (stereo not drawn) [Compound 12, 5'-methoxy-5H-spiro[benzo[4,5]imidazo[1,2-c]quinazoline-6,3'-indolin]-2'-one], the EC50 is 928 nM with P. falciparum 3D7 strain (setting [3]); 1000 nM with P. falciparum 3D7 strain (setting [4]); below 1000 nM in data set [2] (setting [5]); 60 nM in data set [2] (setting [6]); 63.1 nM in data set [2] (setting [7]). Moreover, in data set [2], the “Comment (activity in words on retest)” value is “Validated hit, CHEMBL1545915^f)”.

For the compound `Cc1csc(Sc2ncnc3sccc23)n1` [Compound 13, 4-((4-methylthiazol-2-yl)thio)thieno[2,3-d]pyrimidine], the EC50 with P. falciparum 3D7 strain (setting [3]) is 194 nM; with P. falciparum 3D7 strain (setting [4]), 200 nM; in data set [2] (setting [8]), 102 to 194 nM; in data set [2] (setting [5]), below 1000 nM; in data set [2] (setting [6]), 102 nM; in data set [2] (setting [7]) it was 100 nM. In addition, in data set [2], the “Comment (activity in words on retest)” value is reported as “Validated hit”.
